Each structure is given as a SMILES string.

For this data set the following is noted: pampa; pH 5.0; 30.0 min; 50.0 µM.

What is called Papp is the rate of passage across a membrane or cell layer, normalised by area and donor concentration. A lower Papp goes with slow passage. Turning to `COc1ccc(-n2nc(C3CCCN([S+](=O)([O-])c4cccc(C(F)(F)F)c4)C3)[nH]c2=O)cc1` (stereo unspecified), the apparent permeability coefficient (Papp) was 564 ×10⁻⁶ cm/s.

`Cc1ccc(-c2nc(C)c(C(=O)Nc3ccc4c(c3)C(=O)N3CCC[C@H]3C(=O)N4)s2)cc1` displayed a Papp of 48.2 ×10⁻⁶ cm/s. `Cc1ccc(-n2ncc3c(NCCCn4ccnc4)ncnc32)cc1Cl` had a Papp of 559 ×10⁻⁶ cm/s. The compound `COc1cc(NC(=O)c2cc(-c3ccccc3O)no2)cc(OC)c1OC` gave an apparent permeability coefficient (Papp) of more than 1000 ×10⁻⁶ cm/s.

As for `Cc1ccccc1N(C)C1CN([S+](=O)([O-])c2cccc(C(F)(F)F)c2)C1`, the apparent permeability (Papp) stood at 924 ×10⁻⁶ cm/s. Consider `CCc1nnc(NC(=O)c2nc(S(=O)(=O)Cc3ccc(C)cc3)ncc2Cl)s1`, for which the Papp was determined as 711 ×10⁻⁶ cm/s.

Take `O=C(Nc1cccc(OC(F)(F)F)c1)c1cc(-c2ccc[nH]2)n[nH]1`: the Papp is 103 ×10⁻⁶ cm/s.

For `Cc1ccc(CN2C(=O)C(O)(CC(=O)c3ccc(C)cc3)c3ccccc32)cc1` (stereo unspecified), the Papp was 626 ×10⁻⁶ cm/s. For the compound `Cc1nn2c(c1-c1ccccc1-c1ccccc1)N(CC1CC1)CCC2`, the Papp was more than 1000 ×10⁻⁶ cm/s. Next, `O=C(Nc1ccc(F)cc1F)c1cc(-c2ccc[nH]2)n[nH]1`: 166 ×10⁻⁶ cm/s.

In turn, `Cc1ccc(CN2CCOC[C@H]2c2ncc(-c3cccc(F)c3)[nH]2)cc1` showed an apparent permeability coefficient (Papp) of 995 ×10⁻⁶ cm/s.

Take `CSc1ccccc1N1CCN(CCCCCC(=O)NC2CCCc3ccccc32)CC1` (stereo unspecified): the Papp came out at 628 ×10⁻⁶ cm/s.

`CCC(CC)C(=O)NC[C@@H]1C=C(C)[C@H](Cc2nc3c(C)cccc3[nH]2)C[C@H]1C(C)C` registered a Papp of more than 1000 ×10⁻⁶ cm/s.

For `CC(=O)NCCNC(=O)c1ccc(-c2ncc3cnc(-c4cccc(F)c4)cn23)cc1`, the Papp came out at 7.62 ×10⁻⁶ cm/s. `O=C(NCCc1cnc[nH]1)c1ccc(-c2ncc3cnc(-c4cccc(F)c4)cn23)cc1`: the Papp was 5.09 ×10⁻⁶ cm/s. Compound `O=C(Nc1cccc(F)c1)c1cc(-c2ccc[nH]2)n[nH]1` came in with a Papp of 75.6 ×10⁻⁶ cm/s. In turn, `CC(C(O)c1ccc(O)cc1)N1CCC(Cc2ccccc2)CC1` (stereo unspecified) gave an apparent permeability (Papp) of 40.6 ×10⁻⁶ cm/s. The compound `Cn1c(=O)c2c(-c3ccc(Cl)cc3)n(CCc3ccccc3)cc2n(C)c1=O` displayed a Papp of 762 ×10⁻⁶ cm/s. `CC(=O)Nc1ccc(CN2CCc3nc(C(C)C)nc(-c4ccc(Cl)cc4)c3CC2)cc1` returned a Papp of 476 ×10⁻⁶ cm/s. In turn, `CC(NCc1ccc2c(c1)nc(NC(=O)c1ccc(-c3cn[nH]c3)s1)n2CC(C)(C)O)C(C)(C)C` (stereo unspecified) returned an apparent permeability (Papp) of 4.16 ×10⁻⁶ cm/s. Regarding `CCN(CCN(C)C)C(=O)C1CCN(S(=O)(=O)c2c(C)noc2/C=C/c2ccccc2F)CC1`, the Papp was 565 ×10⁻⁶ cm/s.

Compound `COc1cccc(Cn2c(=O)n(-c3cccc(Cl)c3C)c(=O)c3c4c(sc32)CN(C(C)=O)CC4)c1` had a Papp of more than 1000 ×10⁻⁶ cm/s. Consider `c1cc(-c2cc(-c3ccncc3)c3cncn3c2)c2[nH]ncc2c1`, for which the Papp was 20.3 ×10⁻⁶ cm/s. With `COc1cc(C2CC(=O)Nc3cc4c(cc32)OCCO4)cc(Br)c1OC` (stereo unspecified), the apparent permeability (Papp) was more than 1000 ×10⁻⁶ cm/s. `O=C(NC1CCCc2c1[nH]c1c(Cl)cccc21)c1ccc2c(c1)OCO2` (stereo unspecified) registered a Papp of 190 ×10⁻⁶ cm/s.

`CN(C(=O)CSc1nc2ccc(NC(=O)c3ccc(F)cc3)cc2s1)c1ccccc1` showed a Papp of 901 ×10⁻⁶ cm/s.

`CC(C)Oc1cccc(C2CC(=O)Nc3cc4c(cc32)OCO4)c1` (stereo unspecified): the apparent permeability coefficient (Papp) stood at 785 ×10⁻⁶ cm/s. The compound `Cc1cc(C)nc(NS(=O)(=O)c2ccc(NC(=S)NC(=O)COc3ccc(Br)cc3Cl)cc2)n1` came in with a Papp of more than 1000 ×10⁻⁶ cm/s. Compound `CSc1nn(Cc2cccc(C)c2)c(N)c1S(=O)(=O)c1ccccc1` registered a Papp of 878 ×10⁻⁶ cm/s. Compound `CN1CCN(c2ccc(Nc3nn4c(=O)c5ccccc5nc4s3)cc2)CC1` registered a Papp of 5.91 ×10⁻⁶ cm/s. `COC[C@@H]1CN(C(=O)c2nn(C)c3ccccc23)C[C@H]1c1nc(C)no1` registered a Papp of 65.3 ×10⁻⁶ cm/s. On to `c1cc(-c2cc(-c3ccncc3)c3cncn3c2)c2cc[nH]c2c1`, for which the Papp is 21.7 ×10⁻⁶ cm/s. As to `Cc1ccc(C(=O)Nc2ccc3oc(-c4cccnc4)nc3c2)cc1[N+](=O)[O-]`, the apparent permeability (Papp) was determined as 693 ×10⁻⁶ cm/s. In turn, `Cc1noc([C@@H]2CN(C(=O)c3nn(C)c4ccccc34)C[C@H]2CO)n1` came in with a Papp of 91.5 ×10⁻⁶ cm/s. Take `O=C(NC1CCCc2c1[nH]c1ccccc21)c1ccccc1` (stereo unspecified): the Papp was determined as 680 ×10⁻⁶ cm/s. `COc1cccc(C(=O)Nc2nnc(S(=O)(=O)N3CCOCC3)s2)c1` yielded a Papp of 787 ×10⁻⁶ cm/s. `CS(=O)(=O)c1ccc(-c2cnc(NCc3ccco3)n3cnnc23)cc1`: the apparent permeability (Papp) is 13.6 ×10⁻⁶ cm/s. On to `COc1ncc(-c2n[nH]c3c2CC(=O)N(c2ccccc2)C3)cn1`, for which the Papp is 42.5 ×10⁻⁶ cm/s. The value for `CN1CCN(Cc2ccc(NC(=O)Cc3ccc(Oc4cc(NC(=O)C5CC5)ncn4)cc3)cc2C(F)(F)F)CC1` was 19.3 ×10⁻⁶ cm/s. The compound `c1ccc(CNc2nc(NCc3ccccc3)c3ccccc3n2)cc1` displayed a Papp of 190 ×10⁻⁶ cm/s. Consider `CNc1nc2c(s1)C(c1ccccc1F)CC(=O)N2` (stereo unspecified), for which the Papp came to 60.3 ×10⁻⁶ cm/s. On to `Cc1nn2c(c1-c1ccccc1-c1ccccc1)N(CCC(C)C)CCC2`, for which the Papp stood at 350 ×10⁻⁶ cm/s. The value for `COC(=O)c1cccc(NC(=O)c2cnc(-c3ccc(F)cc3)nc2-c2ccncc2)c1` was 671 ×10⁻⁶ cm/s; that for `COc1ccc(-n2nc(C3CCCN(C(=O)C4CC4)C3)[nH]c2=O)cc1` (stereo unspecified) was 109 ×10⁻⁶ cm/s; that for `Cc1ccc(C(=O)N2CCc3sc(C(=O)NC(C)c4ccccc4)cc3C2)cc1` (stereo unspecified) was 425 ×10⁻⁶ cm/s. Compound `C[C@]12N[C@H](Cc3ccccc31)c1ccccc12` gave an apparent permeability coefficient (Papp) of 72.8 ×10⁻⁶ cm/s.
